Measurements published in patent US20100143993A1, “PROCESS FOR FERMENTIVE PREPARATIONFOR ALCOLHOLS AND RECOVERY OF PRODUCT” (E.I. DU PONT DE NEMOURS AND COMPANY, priority 2008, published 2010).
Several values for one entry are separate records, joined by “and”; a condition that tells them apart may be missing. Equal values may be shown once.

Experiments:
[1] = tested on: Lactobacillus fermentum (ATCC 14931); experiment: Glucose Uptake Index of Lactobacillus fermentum culture with ionic liquid; format: cell-based; conditions: 5% (v/v) of the ionic liquid phase, MRS medium, 30° C., 16 hours after addition
[2] = tested on: Lactobacillus zeae (ATCC 15820); experiment: Glucose Uptake Index of Lactobacillus zeae culture with ionic liquid; format: cell-based; conditions: 5% (v/v) of the ionic liquid phase, MRS medium, 30° C., 16 hours after addition
Procedure: This media was made per bottle instructions using sterilized water, and was then again filter sterilized before use. The test tubes were incubated at 30° C. at 175 rpm in an Inova Incubator (Karlsbad, Sweden). After 24 hours, the test tubes were removed and stored at 4° C.
A portion (50 μL) of each stock culture prepared as above was inoculated into separate 15 mL sterile polypropylene culture tubes containing fresh MRS medium (3 mL). These tubes were incubated for four hours at 30° C. at 175 rpm. After four hours, one of these culture tubes was inoculated with 150 μL (5% v/v) of each of the ionic liquids as listed in Table 1 below. […] Each tube that was inoculated with an ionic liquid was also paired with a tube that received no ionic liquid and was used as a control.
All culture tubes were then incubated again under the same conditions for another 16 hours. After 16 hours, the culture tubes were stored at −80° C. Analytical samples were taken from each culture tube by thawing the samples and spinning them at 28,000 rpm and 20° C. for ten minutes in a Sorvall Instruments RC3C (Newtown Conn.) centrifuge. One milliliter of supernatant was removed from each tube and was subjected to high performance liquid chromatography (HPLC) analysis using an Agilent (Palo Alto Calif.) HPLC 1100 with a BioRad Aminex 87-H using 0.008 N sulfuric acid with both diode array and refractive index detection, and an Agilent HPLC 1100 with a Shodex OH-pak column using 0.01 N sulfuric acid. Data analysis was performed using the Agilent Chemstation software and Microsoft Excel.
The glucose uptake index was calculated by taking the total glucose consumed in a fermentation sample, whether or not the sample contained an ionic liquid, and dividing it by the total initial glucose present in the broth at the start of fermentation.

[3] = Extraction of isobutanol from an aqueous solution by ionic liquid; conditions: for Isobutanol: isobutanol concentration in aqueous solution (about 31 g/L at start) after mixing with 5 vol % ionic liquid; for Isobutanol / Isobutanol Remaining in Solution: overnight equilibration, HPLC; for Isobutanol Extracted: percentage relative to control without ionic liquid (Example 31); for Isobutanol Extracted / Isobutanol Remaining in Solution: 5 vol % ionic liquid; for Isobutanol Remaining in Solution: aqueous solution about 31 g/L isobutanol
Procedure: Ethanol and isobutanol concentration in the solution was measured using HPLC as described above following thorough mixing and overnight equilibration of the contents of the vial.

[4] = Extraction of ethanol from an aqueous solution by ionic liquid; conditions: for Ethanol: ethanol concentration in aqueous solution (about 31 g/L at start) after mixing with 5 vol % ionic liquid; for Ethanol / Ethanol Remaining in Solution: overnight equilibration, HPLC; for Ethanol Extracted: percentage relative to control without ionic liquid (Example 31); for Ethanol Extracted / Ethanol Remaining in Solution: 5 vol % ionic liquid; for Ethanol Remaining in Solution: aqueous solution about 31 g/L ethanol

Row | Molecule | GUI of Sample (Glucose Utilization Index) [1] | GUI of Sample (Glucose Utilization Index) [2] | Isobutanol [3] | Isobutanol Extracted [3] | Ethanol [4] | Ethanol Extracted [4] | Isobutanol Remaining in Solution [3] | Ethanol Remaining in Solution [4]
1 | 3-methyl-1-propylpyridinium bis(trifluoromethylsulfonyl)imide [[PMPy] [Tf2N]] | 26.1 | 63.5 | – | – | – | – | – | –
2 | CCCCCCn1cc[n+](C)c1.FC(F)(F)C(F)(F)[P-](F)(F)(F)(C(F)(F)C(F)(F)F)C(F)(F)C(F)(F)F [[HMIM] [FAP], 1-hexyl-3-methylimidazolium tris(pentafluoroethyl)trifluorophosphate] | 84.7 | 51.9 | 404 mM | 3.14% | 680 mM | 0.45% | – | –
3 | CCCCn1cc[n+](C)c1.F[B-](F)(F)F [[BMIM] [BF4], 1-butyl-3-methylimidazolium tetrafluoroborate] | – | 11.8 | – | – | – | – | – | –
4 | tetradecyl(tri-n-hexyl)phosphonium 1,1,2-trifluoro-2-(perfluoroethoxy)ethanesulfonate [[6,6,6,14-P] [TPES]] | 92.8 | 62.8 | – | – | – | – | – | –
5 | 1-butyl-3-methylimidazolium 1,1,2-trifluoro-2-(perfluoroethoxy)ethanesulfonate [[BMIM] [TPES]] | 7.21 | 5.06 | – | – | – | – | – | –
6 | 1-butyl-3-methylimidazolium 1,1,2-trifluoro-2-(trifluoromethoxy)ethanesulfonate [[BMIM] [TTES]] | 16.2 | 58.8 | – | – | – | – | – | –
7 | 1-butyl-3-methylimidazolium bis(trifluoromethylsulfonyl)imide [[BMIM] [Tf2N]] | 26.8 | 64.4 | – | – | – | – | – | –
8 | CCCCn1cc[n+](C)c1.F[P-](F)(F)(F)(F)F [[BMIM] [PF6], 1-butyl-3-methylimidazolium hexafluorophosphate] | – | 55.4 | – | – | – | – | – | –
9 | 1-ethyl-3-methylimidazolium bis(pentafluoroethylsulfonyl)imide [[EMIM] [BEI]] | 25.5 | 36.0 | – | – | – | – | – | –
10 | 1-butyl-3-methylpyrrolidinium bis(trifluoromethylsulfonyl)imide [[BMP] [Tf2N]] | 0.96 | 49.8 | 391 mM | 6.33% | 676 mM | 1.17% | 29.0 g/L | 31.1 g/L
11 | 1-butyl-3-methylimidazolium 2-(1,2,2,2-tetrafluoroethoxy)-1,1,2,2-tetrafluoroethanesulfonate [[BMIM] [FS]] | 24.0 | 54.4 | – | – | – | – | – | –
12 | 1-butyl-3-methylimidazolium 1,1,2,3,3,3-hexafluoropropanesulfonate [[BMIM] [HFPS]] | 8.0 and 11.5 | 21.2 and 34.3 | – | – | – | – | – | –
13 | 1-hexyl-3-methylimidazolium bis(trifluoromethylsulfonyl)imide [[HMIM] [Tf2N]] | 19.5 | 66.2 | 388 mM | 7.28% | 678 mM | 0.76% | 28.8 g/L | 31.3 g/L
14 | 1-ethyl-3-methylimidazolium bis(trifluoromethylsulfonyl)imide [[EMIM] [Tf2N]] | 54.5 | 51.2 | 389 mM | 7.11% | 670 mM | 1.96% | 28.8 g/L | 30.9 g/L
